In patent publication US10028992B2, “Methods of treating muscular dystrophy” (BOARD OF REGENTS OF THE NEVADA SYSTEM OF HIGHER EDUCATION …, priority 2012, dated 2018):
Read-outs that look alike come from different tables or passages of the source.

Test system: α7 integrin promoter
Test: muscle cell-based assay: α7βgal+/− myoblasts/myotubes, LacZ reporter, β-galactosidase cleavage of FDG
Parameters: species or system mouse; Results in α7+/− β-galactosidase assay: scale not given here
Details: for AC50 / Emax / EC50: Mus musculus; for AC50: log of AC50, given with negative sign, unit of AC50 not given, read-out: Fit Log AC50 (converted); for Emax: read-out: Max Response [%]; for Results in α7+/− β-galactosidase assay: Myoblasts; for EC50: given as log AC50 (negative values), read-out: Fit LogAC50 (converted)
How it was run: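 Primary α7βgal+/− mouse myoblasts (LacZ knocked into α7 integrin exon 1, promoter retained), differentiated; promoter activity read as β-galactosidase conversion of non-fluorescent FDG to fluorescein. Hits followed by dose-response, western analysis and myostatin counterscreen.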

[1] = Table 12, fitted activity at zero concentration
[2] = Table 12 Compound data, concentration-response curve fit
[3] = curve class number, key not given
[4] = curve fit, activity at zero concentration

For `CC(=O)Nc1ccc(NC(=O)[C@@H](NC(=O)c2cccc(C)c2)C(C)C)cc1` [Compound 47], the AC50 (Table 12) was 5.62 µM, the Emax was 142% and the “Fit HillSlope” value (Table 12, curve fit) was 1.331. For the same compound, the “Fit Zero Activity [%]” value [1] was 12.5272%, the “Fit Curve Class” value (Table 12, key not given) was 2.1 and the Score [2] was 46.
With `O=C1Nc2ccccc2/C1=C/c1c[nH]cn1` the “Results in a α7+/− β-galactosidase assay, Myotubes, 0.5 uM” value (“Results … 0.5 uM” below) was −0.09659, the “Results in a α7+/− β-galactosidase assay, Myotubes, 1 uM” value (“Results … 1 uM” for short) was 0.04801 and the “Results in a α7+/− β-galactosidase assay, Myotubes, 5 uM” value (“Results … Myotubes, 5 uM” below) was 0.2975. The “Results in a α7+/− β-galactosidase assay, Myotubes, 10 uM” value (shortened to “Results … 10 uM”) was 0.1108, the “Results in a α7+/− β-galactosidase assay, Myotubes, 20 uM” value (from here on “Results … 20 uM”) was 0.1916 and the “Results in a α7+/− β-galactosidase assay, Myotubes, 40 uM” value (“Results … 40 uM” for short) was 0.1189.
`CCCN(C(=O)c1ccc(S(=O)(=O)N2CCCC2)cc1)C1CCS(=O)(=O)C1` (centres unmarked) [drawing 560] was tested, and the “Results in α7+/− β-galactosidase assay” value (0.5 uM) was −0.1431, the “Results in α7+/− β-galactosidase assay” value (1 uM) was −0.1722 and the “Results in α7+/− β-galactosidase assay” value (5 uM) was −0.06143. For the same compound, the “Results in α7+/− β-galactosidase assay” value (10 uM) was 0.1978, the “Results in α7+/− β-galactosidase assay” value (20 uM) was 0.07259 and the “Results in α7+/− β-galactosidase assay” value (40 uM) was −0.0646.
For `CCCCC(C(=O)NC1CCCC1)N(C(=O)c1snc(C(N)=O)c1N)c1ccc(C)cc1` (centres unmarked) [Compound 151], the EC50 was 10 µM, the Score (Table 12 compound data) was 42 and the “Fit Curve Class” value [3] was 2.1. For the same compound, the “Fit HillSlope” value (curve fit) was 3.132 and the “Fit Zero Activity [%]” value [4] was −26.3814%.
In the case of `CC(=O)Nc1ccc(N(C(=O)c2cnccn2)C(C(=O)NC2CCCCC2)c2ccc(F)cc2)cc1` (centres unmarked) [Compound 44], the AC50 (Table 12) is reported as 11.2 µM, the Emax is reported as 308% and the “Fit HillSlope” value (Table 12, curve fit) is reported as 4.095. For the same compound, the “Fit Zero Activity [%]” value [1] was −17.6073%, the “Fit Curve Class” value (Table 12, key not given) was 2.1 and the Score [2] was 47.
`Cn1ccc(C(=O)Nc2cccnc2Cl)n1` [drawing 502] was tested, and the “Results … 0.5 uM” value (Myotubes, compound at 0.5 uM) was 0.04794, the “Results … 1 uM” value (Myotubes, compound at 1 uM) was −0.05775 and the “Results … Myotubes, 5 uM” value (Myotubes, compound at 5 uM) was 0.0198. For the same compound, the “Results … 10 uM” value (Myotubes, compound at 10 uM) was 0.06627, the “Results … 20 uM” value (Myotubes, compound at 20 uM) was −0.1124 and the “Results … 40 uM” value (Myotubes, compound at 40 uM) was −0.1256.
With `COc1ccccc1CNc1cc(C)ccn1` [Compound 31] the AC50 (Table 12) was 2.51 µM, the Emax was 62.3% and the “Fit HillSlope” value (Table 12, curve fit) was 1.9673. For the same compound, the “Fit Zero Activity [%]” value [1] was −24.2621%, the “Fit Curve Class” value (Table 12, key not given) was 1.1 and the Score [2] was 83.
In the case of `CNC(=O)CSc1nnc(-c2ccc3c(c2)OCO3)n1C` [drawing 328], the “Results … 0.5 uM” value (Myotubes, compound at 0.5 uM) is reported as 0.08818, the “Results … 1 uM” value (Myotubes, compound at 1 uM) is reported as −0.1177 and the “Results … Myotubes, 5 uM” value (Myotubes, compound at 5 uM) is reported as 0.04868. For the same compound, the “Results … 10 uM” value (Myotubes, compound at 10 uM) was 0.07527, the “Results … 20 uM” value (Myotubes, compound at 20 uM) was −0.1599 and the “Results … 40 uM” value (Myotubes, compound at 40 uM) was −0.2763.
With `C/N=C(\S)N1CCC(NC(=O)C(Cc2ccc(F)cc2)NC(C)=O)CC1` (centres unmarked) [Compound 82] the AC50 (Table 12) was 3.16 µM, the “Fit HillSlope” value (Table 12, curve fit) was 1.1341 and the “Fit Infinite Activity [%]” value (Table 12, fitted activity at infinite concentration) was 89.9991%. For the same compound, the “Fit Zero Activity [%]” value [1] was −6.4745%, the “Fit Curve Class” value (Table 12, key not given) was 2.1 and the Score [2] was 44.
With `CCOc1ccccc1NC(=O)c1cccc2c1C(=O)N(C1CCCCC1)C2` [drawing 499] the “Results … 0.5 uM” value (Myotubes, compound at 0.5 uM) was 0.0377, the “Results … 1 uM” value (Myotubes, compound at 1 uM) was −0.1345 and the “Results … Myotubes, 5 uM” value (Myotubes, compound at 5 uM) was −0.3317. The “Results … 10 uM” value (Myotubes, compound at 10 uM) was −0.3744, the “Results … 20 uM” value (Myotubes, compound at 20 uM) was −0.1769 and the “Results … 40 uM” value (Myotubes, compound at 40 uM) was −0.1762.
For `O=C(O)CCn1cc(/C=C2/NC(=S)N(c3ccccc3)C2=O)c(-c2ccccc2)n1` [Compound 65], the “Curve Description” value was “Partial”, the “Fit Curve Class” value was 2.1 and the “Fit HillSlope” value was 4.095. The “Fit Infinite Activity [%]” value was 501.215%, the “Fit Log AC50” value was −4.7 and the “Fit Zero Activity [%]” value was 9.2299%. It also gave a Score of 45.
`O=C(NCCc1ccccc1)C1CCC(=O)N1C1CCCC1` (centres unmarked) [drawing 559] was tested, and the “Results in α7+/− β-galactosidase assay” value (0.5 uM) was −0.1018, the “Results in α7+/− β-galactosidase assay” value (1 uM) was −0.1461 and the “Results in α7+/− β-galactosidase assay” value (5 uM) was 0.003015. For the same compound, the “Results in α7+/− β-galactosidase assay” value (10 uM) was 0.245, the “Results in α7+/− β-galactosidase assay” value (20 uM) was 0.1433 and the “Results in α7+/− β-galactosidase assay” value (40 uM) was 0.02863.
`CCS(=O)(=O)N1CCN(c2ccc([N+](=O)[O-])c(NCC3CCCO3)c2)CC1` (centres unmarked) [Compound 204] was tested, and the EC50 was 10 µM, the Score (Table 12 compound data) was 42 and the “Fit Curve Class” value [3] was 2.2. The “Fit HillSlope” value (curve fit) was 3.5722 and the “Fit Zero Activity [%]” value [4] was 0.4864%.
In the case of `COC(=O)c1ccc(/N=N/c2ccccc2)cc1` [drawing 613], the “Results in α7+/− β-galactosidase assay” value (0.5 uM) is reported as 0.1047, the “Results in α7+/− β-galactosidase assay” value (1 uM) is reported as 0.17 and the “Results in α7+/− β-galactosidase assay” value (5 uM) is reported as −0.07402. For the same compound, the “Results in α7+/− β-galactosidase assay” value (10 uM) was −0.1217, the “Results in α7+/− β-galactosidase assay” value (20 uM) was −0.1237 and the “Results in α7+/− β-galactosidase assay” value (40 uM) was −0.2361.
